Entries after “also recorded” stand apart in the source; their conditions may differ.
Experiments:
A549 cells [1] = test: GSHE experiment: cell viability and toxicity with 10 μM BPTES
Procedure: (§1) [^13C5]-glutamine experiments: To determine the fraction of glutathione that is derived directly from glutamine, A549 and H460 cell lines were cultured in 96-well plates in glutamine-free medium supplemented with 0.3 g/L [^13C5]-glutamine. Cell media aliquots were harvested at 12, 24, 36, and 48 hrs. Light microscopy was used at 12 hours to visualize the cells at each dosage. After 48 hours the CellTiter 96, CellTiter-Glo® 2.0, and CellTox™ Green Cytotoxicity assays, (Promega, Madison, Wis.) were utilized to respectively assess cell proliferation, cell viability, and cell death of both the BPTES and [^13C5]-glutamine experiments.
(§2) Glutathione-monoethyl ester (GSHE) experiments: Cells (7500) were seeded into 96 well plates containing 100 μl complete media. Cells were treated with 10 μM BPTES in DMSO and 0, 1, 5 and 10 mM GSHE. After 48 hrs cells were harvested and cell viability and toxicity were assessed as described above.

H460 cells [2] = test: as above
Procedure: as §1, §2

[3] = tested on: H460 and A549 lung tumor cells; test: Glutathione synthesis and excretion after GLS inhibition, cell lines not separated; type: cell-based, human; conditions: for fold more effective in depletion of glutathione: compared with 100 to 10,000 μM buthionine sulfoximine reported previously; for glutathione synthesis and excretion: in vitro
Procedure: GLS inhibition experiments: In the mechanistic experiments with BPTES or CB-839, cells (7500) were seeded (Time—24 hrs) into 96-well plates containing 100 μl complete medium, and allowed to attach for 24 hrs. […] Media aliquots of 25 μl were removed from each well at 24, 36, and 48 hrs to monitor the time course of metabolite consumption and production (metabolomic footprint). Cells were maintained at 37° C., 5% CO2 and 40% humidity until time of harvest. Cell viability was determined using Cell Glow, Cell TOX or MTT assays according to manufacture descriptions.
LC-MS quantitation by liquid chromatography tandem mass spectrometry (LC-MS/MS): Metabolites were extracted from cell pellets by the addition of 3 ml of 50% methanol/0.2% formic acid to the frozen cells in the culture flasks. Cells were scraped from the culture flasks and transferred to 15 ml tubes. Proteins were precipitated from 750 μl cell pellet suspensions by addition of 1050 μl acetonitrile/0.2% formic acid. Metabolites were extracted from 25 or 100 μl culture media from 96 well plates or 25-T flasks, respectively, and with the respective addition of 275 μl or 1300 μl of 40% methanol/60% acetonitrile/0.2% formic acid. Cell pellets or media suspensions were incubated on ice for 30 min, followed by centrifugation for 10 min at 13000 g. Supernatants were transferred to new vials, solvents were removed in a speed vac and the concentrated metabolites stored at -80° C. until analysis.
Samples were reconstituted in 0.2% formic acid and analyzed by LC-MS/MS (Agilent, 1290 Infinity LC coupled to an Agilent 6490 triple quadrupole mass analyzer). An Agilent Poroshell 2.7 μm C18 (2.1 mm×100 mm) column was operated with a linear gradient from 2% Methanol/0.01% formic acid to 95% Methanol/0.01% formic acid in 10 min. Individual metabolites were monitored in multiple reactions monitoring mode, monitoring specific ion transitions shown in Table 1. The specific ion transitions and retention times for each metabolite were established experimentally using commercially available standard compounds. Quantitation of the individual metabolites were based on external calibration curves that were generated with each set of samples. In the stable isotope tracing experiment, ^13C5-incorporation into subsequent metabolites was determined by monitoring the corresponding m/z ion transitions (Table 1).

[4] = tested on: H460 and A549 lung tumor cells; type: cell-based; conditions: for cell proliferation and viability: FIG. 4 and FIG. 8
Procedure: Media aliquots of 25 μl were removed from each well at 24, 36, and 48 hrs to monitor the time course of metabolite consumption and production (metabolomic footprint). Cells were maintained at 37° C., 5% CO2 and 40% humidity until time of harvest. Cell viability was determined using Cell Glow, Cell TOX or MTT assays according to manufacture descriptions.
Cells were seed in 6-well and allowed to attach for 1 day.
as §1
(§3) Radiation exposure of lung tumor cell lines: Radiation sensitivity was determined by methods described previously. In brief, for colony formation, A549 and H460 cells were seeded in 6-well plates containing 3 ml standard complete medium and allowed to attach for 24 h. Media were changed and cells were grown for another 24 h in standard medium, glutamine-free medium, medium containing 2 μM BPTES (to deplete glutathione), and medium containing only the vehicle. Cells were subsequently radiated using a Faxitron X-ray Generating System (CP-160, Faxitron X-Ray Corp., Wheeling, Ill.). Single-doses of 4 or 8 Gy (Gray) were delivered at a dose rate of 1 Gy/min (150 kVp and 6.6 mA). Cells were then placed in standard complete RPMI medium and allowed to form colonies for 8 days. The surviving colonies (containing >˜50 cells) were stained and counted on a stereomicroscope. Plating efficiency (PE) of cells with each treatment were determined and normalized to that of control untreated cells and the surviving fractions were calculated by dividing the PE of the treated cells by the PE of the control untreated cells.

H460 cell-derived tumors = test: H460 mouse xenograft, tumor volume with and without radiation; type: in vivo, nude mice
Text: METHOD: Mouse xenograft experiments. For the first in vivo study, H460 cell-derived tumors were engrafted on the hind flank of 20 male. […] (1) control (2) CB-839, (3) 18 Gy radiation and (4) CB-839 plus 18 Gy radiation. For the second in vivo experiment, H460 cell-derived tumors were engrafted on the hind flank of 50 female nude mice. […] (1) Vehicle only, (2) 2 Gy radiation, (3) 4 Gy radiation, (4) 8 Gy radiation, (5) 12 Gy radiation, (6) Vehicle only plus CB-839, (7) 2 Gy radiation plus CB-839, (8) 4 Gy radiation plus CB-839, (9) […], (10) 12 Gy radiation plus CB-839. CB-839 was given three times at 20 mg/kg by oral gavage at 28, 16 and 4 hrs prior to a single dose of 18 Gy radiation. CB-839 was administered by oral gavage as solution of 200 mg/kg CB-839 in 200 ul 25% (w/v) hydroxypropyl-b-cyclodextrin in 10 mmol/[…], pH 2 or 25% (w/v) hydroxypropyl- b-cyclodextrin in 10 mmol/L citrate, pH 2. Thirty minutes prior to radiation treatment, 50 μl blood was taken form tail vein and serum was analyzed for reduced and oxidized GSH by LC-MS. Radiation was given as a single 1Gy/min dose for 2, 4, 8, 12, or 18 min respectively. Tumor volume measurements were repeated at the indicated days until termination of the animals. Tumor volume was computed by multiplying “a” times (“a” X “b”)/2. The “Mean tumor volumes” and “Relative tumor volume” for male and female mice are graphed in FIGS. 9A-B and FIGS. 10A-F, respectively.

[5] = tested on: total glutathione in serum; test: Total glutathione (reduced plus oxidized) in serum by LC-MS at day of radiation; type: in vivo, nude mice
Procedure: CB-839 was given three times at 20 mg/kg by oral gavage at 28, 16 and 4 hrs prior to a single dose of 18 Gy radiation. CB-839 was administered by oral gavage as solution of 200 mg/kg CB-839 in 200 ul 25% (w/v) hydroxypropyl-b-cyclodextrin in 10 mmol/Lcitrate, pH 2 or 25% (w/v) hydroxypropyl- b-cyclodextrin in 10 mmol/L citrate, pH 2. Thirty minutes prior to radiation treatment, 50 μl blood was taken form tail vein and serum was analyzed for reduced and oxidized GSH by LC-MS. Radiation was given as a single 1Gy/min dose for 2, 4, 8, 12, or 18 min respectively. Tumor volume measurements were repeated at the indicated days until termination of the animals. Tumor volume was computed by multiplying “a” times (“a” X “b”)/2. The “Mean tumor volumes” and “Relative tumor volume” for male and female mice are graphed in FIGS. 9A-B and FIGS. 10A-F, respectively.

A549 cells [6] = test: Radiation sensitivity by clonogenic assay; type: cell-based, human; conditions: 2 μM BPTES 24 h, 4 Gy and 8 Gy, p<0.001
Procedure: as §3

H460 cells [7] = test: Radiation sensitivity by clonogenic assay; type: cell-based, human; conditions: 2 μM BPTES 24 h, 4 Gy and 8 Gy, p<0.001
Procedure: as §3

A549 cells [8] = test: GLS inhibition experiment, bright field images of cell death; type: cell-based, human; conditions: 10, 20, 40 and 100 μM, 48 hrs
Procedure: (§4) GLS inhibition experiments: In the mechanistic experiments with BPTES or CB-839, cells (7500) were seeded (Time—24 hrs) into 96-well plates containing 100 μl complete medium, and allowed to attach for 24 hrs. Complete medium was added (Time 0 hrs) containing various concentrations of GLS inhibitors to give the final concentrations of 0.001 to 100 μM. Media aliquots of 25 μl were removed from each well at 24, 36, and 48 hrs to monitor the time course of metabolite consumption and production (metabolomic footprint). Cells were maintained at 37° C., 5% CO2 and 40% humidity until time of harvest. Cell viability was determined using Cell Glow, Cell TOX or MTT assays according to manufacture descriptions.

H460 cells [9] = test: as above; type: cell-based, human; conditions: 10, 20, 40 and 100 μM, 48 hrs
Procedure: as §4

[10] = male nude mice, day #17, CB-839 20 mg/kg oral gavage 28, 16 and 4 hrs before 18 Gy

**Q.** With CCOC(=O)CNC(=O)[C@H](CS)NC(=O)CC[C@H](N)C(=O)O [GSHE, Glutathione-monoethyl ester] as the compound, how does the “protection against BPTES-induced cytotoxicity” value (A549 cells [1]; 1-10 mM GSHE with 10 μM BPTES) read?
**A.** dose-dependent protection

**Q.** And the “protection against BPTES-induced cytotoxicity” value (H460 cells [2]; 1-10 mM GSHE with 10 μM BPTES)?
**A.** dose-dependent protection

**Q.** Which “fold more effective in depletion of glutathione” value [3] does the source give for O=C(Cc1cccc(OC(F)(F)F)c1)Nc1ccc(CCCCc2nnc(NC(=O)Cc3ccccn3)s2)nn1 [CB-839] here?
**A.** at least 1000 fold

**Q.** What about the “glutathione synthesis and excretion” value [3] of the same compound?
**A.** successfully depletes glutathione synthesis and excretion; also recorded: abolished glutathione excretion

**Q.** What about the “cell proliferation and viability” value [4] of the same compound?
**A.** reduced cell proliferation and viability

**Q.** What about the “sensitivity to ionizing radiation in vitro” value ([4]; in vitro) of the same compound?
**A.** increase sensitivity to ionizing radiation

**Q.** And the “response to radiation treatment improved, based on tumor volume over time” value (H460 cell-derived tumors; H460 xenograft, short term (3 times) CB-839)?
**A.** more than 25%

**Q.** And the “efficacy of short term CB-839 alone” value (H460 cell-derived tumors; H460 xenograft, short term (3 times) CB-839, no radiation)?
**A.** does not show efficacy

**Q.** What about the “tumor growth, CB-839 alone” value (H460 cell-derived tumors; female nude mice, 3 doses orally every 12 hrs) of the same compound?
**A.** did not affect the tumor growth

**Q.** And the “accelerated tumor growth caused by 2 Gy radiation” value (H460 cell-derived tumors; female nude mice, CB-839 plus 2 Gy)?
**A.** prevented

**Q.** And the “mean tumor size smaller, CB-839 plus radiation compared to CB-839 alone” value (H460 cell-derived tumors; [10])?
**A.** 90%

**Q.** And the “mean tumor size smaller, CB-839 plus radiation compared to radiation alone” value (H460 cell-derived tumors; [10])?
**A.** 20%

**Q.** And the “tumor growth, CB-839 alone compared to control” value (H460 cell-derived tumors; male nude mice, three CB-839 treatments)?
**A.** did not affect subsequent tumor growth

**Q.** And the “total glutathione in blood lower” value ([5]; female nude mice, time of radiation, three doses of 200 mg/Kg/bw at 28, 16 and 4 hrs earlier)?
**A.** 53%

**Q.** What about the serum glutathione reduced ([5]; in vivo, short term treatment) of the same compound?
**A.** > 50%

**Q.** And the “total GSH in serum lower compared to none treated mice” value ([5]; male nude mice, day #12 prior to radiation, CB-839 three times)?
**A.** 56%

**Q.** How did the “concentration at which glutathione excretion was essentially abolished” value ([3]; FIG. 4, H460 and A549) turn out when O=C(Cc1ccccc1)Nc1nnc(CCSCCc2nnc(NC(=O)Cc3ccccc3)s2)s1 [BPTES, Bis-2-(5-phenyl-acetamido-1,3,4-thiadiazol-2-yl) ethyl sulfide] was run?
**A.** > 5 µM

**Q.** What about the “fold more effective in depletion of glutathione” value [3] of the same compound?
**A.** ≥ 100 fold

**Q.** And the “glutathione synthesis and excretion” value [3]?
**A.** abolished glutathione excretion

**Q.** What about the cell viability (A549 cells [1]; 10 μM BPTES, 48 hrs) of the same compound?
**A.** reduced viability

**Q.** And the cell viability (H460 cells [2]; 10 μM BPTES, 48 hrs)?
**A.** reduced viability

**Q.** And the “radiation response, colony formation compared to control cells” value (A549 cells [6])?
**A.** radiation-induced reduction in colony formation

**Q.** And the “radiation response, colony formation compared to control cells” value (H460 cells [7])?
**A.** radiation-induced reduction in colony formation

**Q.** What about the “cell death, visual” value (A549 cells [8]) of the same compound?
**A.** visual increase in cell death

**Q.** What about the “cell death, visual” value (H460 cells [9]) of the same compound?
**A.** visual increase in cell death

**Q.** What about the “cell proliferation and viability” value [4] of the same compound?
**A.** reduced cell proliferation and viability

**Q.** And the cell growth ([4]; FIGS. 4A-4C)?
**A.** significant growth inhibition

— patent publication US20180104336A1, “Method of Increasing Radiation Sensitivity of Tumor Cells” (priority 2016, published 2018)
